Here are results for 16 compounds from PubChem BioAssay AID1259408 (Genetic Toxicology Data Bank (GENE-TOX), 2018).

Active and inactive are the calls of the source. No rule for the calls is given here.

The data set has as its system GENE-TOX genotoxicity assays, various organisms and cells. The experiment in a line: GENE-TOX mutagenicity studies. The conditions noted are these: for call: Assay Type: In vivo carcinogenicity studies, Assay Code: CCG+. An excerpt:
GENE-TOX provides genetic toxicology (mutagenicity) test data from expert peer review of open scientific literature for more than 3,000 chemicals from the United States Environmental Protection Agency (EPA). GENE-TOX was established to select assay systems for evaluation, review data in the scientific literature, and recommend proper testing protocols and evaluation procedures for these systems.
GENE-TOX covers the years 1991 - 1998. It is no longer updated.
This is an archive assay for GENE-TOX mutagenicity studies.

Where [1] appears, read: Species/Cell Type: Bacillus subtilis (H17 vs M45T), Assay Type: Rec-assay, spot test, DNA effects (bacterial DNA repair), Assay Code: REXT, Evaluation Type: Evaluation A (Pre-1980).
[2] abbreviates: Species/Cell Type: Mammalian polychromatic erythrocytes, Assay Type: Micronucleus test, chromosome aberrations, Assay Code: MNTT, Evaluation Type: Evaluation B (Post-1980).
The mark [3] stands for this setting: Species/Cell Type: Salmonella typhimurium (one or more of the five standard strains: TA98, TA100, TA1535, TA1537, and TA1538), Assay Type: Histidine reverse gene mutation, Ames assay, Assay Code: SAL-, Evaluation Type: Evaluation A (Pre-1980).
[4] abbreviates: Species/Cell Type: Nonhuman, Evaluation Type: Evaluation A (Pre-1980).
Where [5] appears, read: Species/Cell Type: Escherichia coli polA (W3119 vs P3478), Assay Type: Rec-assay, DNA effects (bacterial DNA repair), Assay Code: RE1+, Evaluation Type: Evaluation A (Pre-1980).
Where [6] appears, read: Species/Cell Type: Human lymphocytes, Assay Type: Sister-chromatid exchange (SCE) in vitro, Assay Code: SCL+, Evaluation Type: Evaluation B (Post-1980).
[7] abbreviates: Species/Cell Type: Drosophila melanogaster, Assay Type: Sex-linked recessive lethal gene mutation, Assay Code: SRLT, Evaluation Type: Evaluation A (Pre-1980).

For `CCc1cccc(O)c1`, the mutagenic call by setting is: (Species/Cell Type: Human lymphocytes, Assay Type: Sister-chromatid exchange (SCE) in vitro, Assay Code: SCLT, Evaluation Type: Evaluation B (Post-1980)) “no conclusion”; (Species/Cell Type: Human, Assay Type: Sister-chromatid exchange (SCE) in vitro, Assay Code: SC1T, Evaluation Type: Evaluation B (Post-1980)) “no conclusion”.
As to `O=C(O)C1=NN(c2ccc(S(=O)(=O)O)cc2)C(=O)C1N=Nc1ccc(S(=O)(=O)O)cc1` (stereo unspecified), the mutagenic call by setting is: under setting [1], “no conclusion”; (Species/Cell Type: Fischer rat embryo (RLV/1706) cells, Assay Type: Cell transformation, viral enhanced, Assay Code: CTR-, Evaluation Type: Evaluation A (Pre-1980)) “inactive; negative”; under setting [2], “no conclusion”; (Species/Cell Type: Saccharomyces cerevisiae, Assay Type: Mitotic recombination or gene conversion, Assay Code: YEC-, Evaluation Type: Evaluation A (Pre-1980)) “inactive; negative”; under setting [3], “inactive; negative”.
Turning to `BrCC(Br)C(Br)CBr` (stereo unspecified), the mutagenic call (Species/Cell Type: Rodents, Sex: Male, Assay Type: Dominant lethal test, Assay Code: DLT-, Evaluation Type: Evaluation A (Pre-1980)) was “inactive; negative”.
Consider `CCCc1cc(=O)[nH]c(=S)[nH]1`, for which, under setting [4], the call was “active; positive”.
`CC(C)CI`: the mutagenic call (Species/Cell Type: Escherichia coli polA (W3119 vs P3478), Assay Type: Rec-assay, DNA effects (bacterial DNA repair), Assay Code: RE1T, Evaluation Type: Evaluation A (Pre-1980)) is reported as “no conclusion”.
As to `CNNCc1ccc(C(=O)NC(C)C)cc1`, the mutagenic call was “inactive; negative” (Species/Cell Type: Drosophila melanogaster, Assay Type: Aneuploidy, partial sex chromosome loss, chromosome aberrations, Assay Code: DAP-M, Evaluation Type: Evaluation A (Pre-1980)); “active; positive” (Species/Cell Type: Drosophila melanogaster, Assay Type: Aneuploidy, whole sex chromosome loss, chromosome aberrations, Assay Code: DAC+M, Evaluation Type: Evaluation A (Pre-1980)); “active; positive” (Species/Cell Type: Drosophila melanogaster, Assay Type: Sex-linked recessive lethal gene mutation, Assay Code: SRL+, Evaluation Type: Evaluation A (Pre-1980)); “inactive; negative” (Species/Cell Type: Drosophila melanogaster, Sex: Male, Assay Type: Heritable translocation test, chromosome aberrations, Assay Code: DHT-, Evaluation Type: Evaluation A (Pre-1980)); “active; positive” under setting [5]; “active; positive” (Species/Cell Type: Fischer rat embryo (RLV/1706) cells, Assay Type: Cell transformation, viral enhanced, Assay Code: CTR+, Evaluation Type: Evaluation A (Pre-1980)). In addition, the mutagenic call is “active; positive” under setting [6]; “active; positive” (Species/Cell Type: Human, Assay Type: Sister-chromatid exchange (SCE) in vitro, Assay Code: SC1+, Evaluation Type: Evaluation B (Post-1980)); “active; positive” (Species/Cell Type: Mammalian polychromatic erythrocytes, Assay Type: Micronucleus test, chromosome aberrations, Assay Code: MNT+, Evaluation Type: Evaluation A (Pre-1980)); “inactive; negative” (Species/Cell Type: Mouse (BALB/c-3T3) cells, Assay Type: Cell transformation, Assay Code: CTB-, Evaluation Type: Evaluation A (Pre-1980)); “active; positive” (Species/Cell Type: Mouse lymphoma (L5178Y) cells, Assay Type: Forward gene mutation at the thymidine kinase (TK) locus, chromosome aberrations, Assay Code: L51+, Evaluation Type: Evaluation A (Pre-1980)); “active; positive” (Species/Cell Type: Mouse, Sex: Female, Assay Type: Spot test, gene mutation, Assay Code: MST+, Evaluation Type: Evaluation A (Pre-1980)). Besides, the mutagenic call is, setting by setting: (Species/Cell Type: Mouse, Sex: Male, Assay Type: Heritable translocation test, chromosome aberrations, Assay Code: HTT+, Evaluation Type: Evaluation A (Pre-1980)) “active; positive”; (Species/Cell Type: Mouse, Sex: Male, Assay Type: Specific locus test, gene mutation, Assay Code: SLT+, Evaluation Type: Evaluation A (Pre-1980)) “active; positive”; (Species/Cell Type: Mouse, Sex: Male, Assay Type: Sperm morphology, Assay Code: SPI+, Evaluation Type: Evaluation A (Pre-1980)) “active; positive”; (Species/Cell Type: Neurospora crassa, Assay Type: Forward gene mutation, Assay Code: NEF+, Evaluation Type: Evaluation A (Pre-1980)) “active; positive”; (Species/Cell Type: Nonhuman, Assay Type: Sister-chromatid exchange (SCE) in vivo, Assay Code: SC3+D, Dose Response: With dose response, Evaluation Type: Evaluation A (Pre-1980)) “active; positive”; (Species/Cell Type: Rabbit, Sex: Male, Assay Type: Sperm morphology, Assay Code: SPR+, Evaluation Type: Evaluation A (Pre-1980)) “active; positive”. For the same compound, the mutagenic call is “active; positive” (Species/Cell Type: Rodents, Sex: Male, Assay Type: Dominant lethal test, Assay Code: DLT+, Evaluation Type: Evaluation A (Pre-1980)); “inactive; positive without activation, negative with activation” (Species/Cell Type: Saccharomyces cerevisiae, Assay Type: Mitotic recombination or gene conversion, Assay Code: YEC+/-*, Activation: With metabolic activation, Evaluation Type: Evaluation A (Pre-1980)); “inactive; positive without activation, negative with activation” (Species/Cell Type: Saccharomyces cerevisiae, Assay Type: Mitotic recombination or gene conversion, Assay Code: YEH+/-*, Activation: With metabolic activation, Evaluation Type: Evaluation A (Pre-1980)); “inactive; positive without activation, negative with activation” (Species/Cell Type: Saccharomyces cerevisiae, Assay Type: Reverse gene mutation, Assay Code: YER+/-*, Activation: With metabolic activation, Evaluation Type: Evaluation A (Pre-1980)); “inactive; negative” under setting [3]; “active; positive” (Species/Cell Type: Salmonella typhimurium, Assay Type: Forward and reverse gene mutation, host-mediated assay, Assay Code: HMA+, Evaluation Type: Evaluation A (Pre-1980)). Under “Species/Cell Type: Syrian hamster embryo (SHE) cells, Assay Type: Cell transformation, clonal assay, Assay Code: CTC+, Evaluation Type: Evaluation A (Pre-1980)”, the mutagenic call was “active; positive”. In addition, the call under setting [4] is “active; positive”.
Turning to `ONc1ccc2c(c1)Cc1ccccc1-2`, the mutagenic call by setting is: under setting [7], “no conclusion”; under setting [5], “active; positive”; (Species/Cell Type: Salmonella typhimurium (one or more of the five standard strains: TA98, TA100, TA1535, TA1537, and TA1538), Assay Type: Histidine reverse gene mutation, Ames assay, Assay Code: SAL+, Evaluation Type: Evaluation A (Pre-1980)) “active; positive”.
Consider `C/C=C/c1ccc(O)c(OC)c1`, for which the mutagenic call under setting [6] is “active; positive”.
For the compound `C=C/C=C/C=C/C#CC#C/C=C/C`, for the setting “Species/Cell Type: Nonhuman, Assay Type: Sister-chromatid exchange (SCE) in vitro, Assay Code: SC2T, Evaluation Type: Evaluation B (Post-1980)”, the mutagenic call is listed as “no conclusion”.
For the compound `O=C1c2ccccc2C(=O)c2c(NCCNCCO)ccc(O)c21`, the mutagenic call (Species/Cell Type: Nonhuman, Assay Type: Sister-chromatid exchange (SCE) in vitro, Assay Code: SC2+, Evaluation Type: Evaluation B (Post-1980)) was “active; positive”.
Take `Cc1cc(N(C)CCCl)ccc1N=Nc1ccccc1C(=O)O`: under setting [7], the mutagenic call was “no conclusion”.
Consider `Cc1c(C(=O)O)c(O)cc2c1C(=O)c1c(O)c([C@@H]3O[C@@H](CO)[C@H](O)[C@@H](O)[C@H]3O)c(O)c(O)c1C2=O`, for which the mutagenic call is, setting by setting: (Species/Cell Type: Bacillus subtilis (H17 vs M45), Assay Type: Rec-assay, spot test, DNA effects (bacterial DNA repair), Assay Code: REWT, Evaluation Type: Evaluation A (Pre-1980)) “no conclusion”; under setting [1], “no conclusion”.
On to `[N-]=[N+]=CC(=O)CCCCC(=O)C=[N+]=[N-]`, for which the mutagenic call (Species/Cell Type: Allium cepa, Assay Type: Chromosome aberrations, Assay Code: ALC-, Evaluation Type: Evaluation A (Pre-1980)) was “inactive; negative”; the mutagenic call (Species/Cell Type: Aspergillus nidulans, Assay Type: Reverse gene mutation, Assay Code: ASRT, Evaluation Type: Evaluation A (Pre-1980)) was “no conclusion”; the mutagenic call (Species/Cell Type: Hordeum vulgare (barley), Assay Type: Gene mutation, Assay Code: HOM+, Evaluation Type: Evaluation A (Pre-1980)) was “active; positive”.
Consider `O=P(O)(O)Oc1c(Br)cc(Br)cc1-c1cc(Br)cc(Br)c1O`, for which the mutagenic call under setting [2] is recorded as “no conclusion”.
In the case of `OCC(c1ccc(Cl)cc1)c1ccc(Cl)cc1`, under setting [7], the mutagenic call is “no conclusion”.
Turning to `O=C1OC2(c3ccccc31)c1ccc(O)c(Br)c1Oc1c2ccc(O)c1Br`, the mutagenic call (Species/Cell Type: Salmonella typhimurium (one or more of the five standard strains: TA98, TA100, TA1535, TA1537, and TA1538), Assay Type: Histidine reverse gene mutation, Ames assay, Assay Code: SALT, Evaluation Type: Evaluation A (Pre-1980)) was “no conclusion”.
